A short description of data set [1]: Pharmacokinetic study in chimps after oral and intravenous co-dosing: plasma levels by LC-MS/MS. Type of data set: in vivo. Conditions: for Cmax / AUC(0-t): plasma, 50 mg, co-administered 1:1; for AUC(0-t): read-out: AUC(0-24). The protocol: (§1) A 1:1 mixture of the two compounds was then prepared containing a final concentration of 1 mg/mL of each compound and the mixture was then sterile filtered through a 0.2-μm filter.
Two chimps (one male and one female) were used in each of the oral and intravenous studies. Animals were fasted overnight prior to administration of compounds. All animals were sedated with ketamine (approximately 10 mg/kg) and/or telazol (approximately 5 mg/kg) prior to dosing. Intravenous administration was achieved by IV infusion of 50 mg of each compound (50 mL total dosing solution) over 30 minutes. Oral administration was achieved by oral gavage of a single 50 mg dose of each compound (50 mL total dosing solution). Blood samples (4.5 mL) were collected from the dosed chimps at various times prior to and after dosing. For intravenous administrations blood samples were collected at 0 min (preinfusion), 15 min, 29.5 min (immediately before the end of the infusion), then 6, 15, 30 and 45 min, and 1, 2, 4, 6, 8, 10, 12 and 24 hr after the infusion is stopped. For oral administrations, blood samples were collected at 0 min (predose), 15 and 30 min, and 1, 1.5, 2, 4, 6, 8, 10 and 12 hr postdose.
Blood samples were placed in tubes containing sodium heparin, mixed and stored on ice until centrifuged. Within 30 minutes of collection, plasma was isolated by centrifuging the blood samples and dividing the resulting plasma (approx. 2 ml) between two 96-deepwell plates. Each plate was sealed and stored at −70° C. until further analysis by LC-MS/MS using an Applied Bio-systems API 4000 mass spectrometer.
(§2) Samples were analyzed by LC-MS/MS using an Applied Bio-systems API 4000 mass spectrometer.

Data set [2] can be described thus: Pharmacokinetic study in chimps after oral and intravenous co-dosing: unmetabolized compound in urine. Type of data set: in vivo. The conditions noted are these: both sexes, chimpanzee, 50 mg of each compound co-administered, average of chimps, urine collected 24 hours post-dose, read-out: Unmetabolized Compound Found in Urine. The protocol:
as §1
Two chimps (one male and one female) were used in each of the oral and intravenous studies. Animals were fasted overnight prior to administration of compounds. All animals were sedated with ketamine (approximately 10 mg/kg) and/or telazol (approximately 5 mg/kg) prior to dosing. Intravenous administration was achieved by IV infusion of 50 mg of each compound (50 mL total dosing solution) over 30 minutes. Oral administration was achieved by oral gavage of a single 50 mg dose of each compound (50 mL total dosing solution). Blood samples (4.5 mL) were collected from the dosed chimps at various times prior to and after dosing.
Urine was collected for 24 hours post-dose for each test animal and stored on ice. Total volume was measured and an aliquot was stored at −70° C. until further analysis
as §2

The mark [3] stands for this setting: following either intravenous or oral administration to chimps.
[4] abbreviates: iv, Chimp 1, IV infusion 50 mg of each compound over 30 min.
The mark [5] stands for this setting: iv, Chimp 2, IV infusion 50 mg of each compound over 30 min.
Where [6] appears, read: po, Chimp 3, PO gavage single 50 mg dose of each compound.
Where [7] appears, read: po, Chimp 4, PO gavage single 50 mg dose of each compound.

What is called Cmax is the peak of the concentration-time curve.

Like-named read-outs stand apart in the source and are kept apart here.

`[2H]C([2H])([2H])OC[C@@H](NC(=O)C([2H])([2H])[2H])C(=O)NCc1ccccc1` [Compound 120, (R)-2-(Acetamido-d3)—N-benzyl-3-(methoxy-d3)propanamide]: the “AUC compared with lacosamide” value in data set [1] (setting [3]) is on record as “higher”. Also, the “Cmax compared with lacosamide” value in data set [1] (setting [3]) is reported as “higher”. The Cmax came to 5280 ng/mL in data set [1] (setting [4]), 1690 ng/mL in data set [1] (setting [5]), 1540 ng/mL in data set [1] (setting [6]) and 1180 ng/mL in data set [1] (setting [7]). Besides, the AUC(0-t) in data set [1] (setting [4]) came out at 31300 ng·h/mL; in data set [1] (setting [5]) it was 25400 ng·h/mL; in data set [1] (setting [6]), 23100 ng·h/mL; in data set [1] (setting [7]), 18000 ng·h/mL. The concentration at 24 h in data set [2] (IV) is 11000 ng/mL; in data set [2] (PO) it was 3200 ng/mL.

Consider `COC[C@@H](NC(C)=O)C(=O)NCc1ccccc1` [Lacosamide, 2(R)-acetamido-N-benzyl-3-methoxypropionamide, reference compound], for which the Cmax came out at 4770 ng/mL in data set [1] (setting [4]), 1560 ng/mL in data set [1] (setting [5]), 1370 ng/mL in data set [1] (setting [6]) and 1090 ng/mL in data set [1] (setting [7]). Further, the AUC(0-t) in data set [1] (setting [4]) is 27600 ng·h/mL; in data set [1] (setting [5]), 23000 ng·h/mL; in data set [1] (setting [6]), 20400 ng·h/mL; in data set [1] (setting [7]), 15900 ng·h/mL. The concentration at 24 h in data set [2] (IV) was found to be 9520 ng/mL; in data set [2] (PO), 2720 ng/mL.
